Results published in patent US9795602B2, “Polycyclic-carbamoylpyridone compounds and their pharmaceutical use” (Gilead Sciences, Inc., priority 2014, dated 2017).
Read-outs that look alike come from different tables or passages of the source. Values belong to the compound of their own block, whether it stands above or below them.

Experiments:
MT4 cells = test: Cytotoxicity (CC50) in MT4 cells, mock-infected; format: cell-based; details: 5 days
Experimental: (§1) Infected and uninfected cells are diluted in cell growth medium and 35 μL of 2000 (for MT4) cells is added to each well of the assay plates. Assay plates were then incubated in a 37° C. incubator. After 5 days of incubation, 25 μL of 2× concentrated CellTiter-Glo™ Reagent (catalog # G7573, Promega Biosciences, Inc., Madison, Wis.) was added to each well of the assay plate. Cell lysis was carried out by incubating at room temperature for 2-3 minutes, and then chemiluminescence was read using the Envision reader (PerkinElmer).

PXR (NR1I2) = PXR (NR1I2) (Homo sapiens (Human), UniProt O75469); test: Human PXR activation assay (luciferase reporter, DPX2 cells); format: cell-based; details: human; 15 uM; DPX2 cells; % Emax relative to rifampicin, adjusted for DMSO background; read-out: PXR % inh at 15 uM (adjusted)
Sequence of PXR (NR1I2) (O75469 whole entry): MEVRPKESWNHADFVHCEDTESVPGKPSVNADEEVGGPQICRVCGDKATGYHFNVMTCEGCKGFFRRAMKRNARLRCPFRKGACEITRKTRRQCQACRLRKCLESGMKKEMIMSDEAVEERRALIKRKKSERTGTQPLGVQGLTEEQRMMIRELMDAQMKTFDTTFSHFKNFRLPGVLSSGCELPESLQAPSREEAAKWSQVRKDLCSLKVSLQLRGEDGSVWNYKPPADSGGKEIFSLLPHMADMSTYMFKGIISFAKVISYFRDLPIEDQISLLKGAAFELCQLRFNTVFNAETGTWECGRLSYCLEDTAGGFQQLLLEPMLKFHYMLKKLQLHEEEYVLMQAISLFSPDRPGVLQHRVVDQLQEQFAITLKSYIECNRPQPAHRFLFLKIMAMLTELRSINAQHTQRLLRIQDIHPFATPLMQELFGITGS
Experimental: (§2) Luciferase Reporter Gene Assay.
(§3) A stably transformed tumor cell line (DPX2) was plated on 96-well microtiter plates. […]. The number of viable cells was determined and the reporter gene activity was assessed. […]

HIV-IIIb = test: Antiviral assay in MT4 cells; format: cell-based; details: read-out: EC50
Experimental: 1 mL aliquots of 2×10^6 MT4 cells are pre-infected for 1 and 3 hours respectively at 37° C. with 25 μL (MT4) or of either cell growth medium (mock-infected) or a fresh 1:250 dilution of an HIV-IIIb concentrated ABI stock (0.004 m.o.i. for MT4 cells). Infected and uninfected cells are diluted in cell growth medium and 35 μL of 2000 (for MT4) cells is added to each well of the assay plates.
as §1, with “Assay” for “Infected and uninfected cells are diluted in cell growth medium and 35 μL of 2000 (for MT4) cells is added to each well of the assay plates. Assay”

OCT2 = OCT2 (Homo sapiens (Human), UniProt O15244); test: OCT2 inhibition assay (14C-TEA uptake, OCT2-transfected MDCKII cells); format: cell-based
Sequence of OCT2 (O15244 whole entry): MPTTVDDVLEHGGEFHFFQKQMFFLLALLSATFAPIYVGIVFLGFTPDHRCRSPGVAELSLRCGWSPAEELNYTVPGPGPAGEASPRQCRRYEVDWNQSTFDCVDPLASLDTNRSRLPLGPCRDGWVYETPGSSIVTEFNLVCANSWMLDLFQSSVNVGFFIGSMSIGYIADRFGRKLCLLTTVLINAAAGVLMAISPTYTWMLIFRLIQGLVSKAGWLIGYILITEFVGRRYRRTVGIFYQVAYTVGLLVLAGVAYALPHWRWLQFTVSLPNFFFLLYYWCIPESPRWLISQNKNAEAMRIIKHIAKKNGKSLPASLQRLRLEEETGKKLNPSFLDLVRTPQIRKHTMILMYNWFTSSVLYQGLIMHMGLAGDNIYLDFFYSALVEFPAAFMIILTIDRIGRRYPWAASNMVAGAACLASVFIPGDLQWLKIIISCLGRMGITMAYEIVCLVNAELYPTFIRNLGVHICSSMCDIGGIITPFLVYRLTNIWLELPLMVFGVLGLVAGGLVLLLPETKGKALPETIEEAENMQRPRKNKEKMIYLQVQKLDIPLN
Experimental: MDCKII cells were maintained in minimal essential medium (MEM) with 1% Pen/Strep, 10% fetal bovine serum, and 0.25 mg/mL hygromycin B in an incubator set at 37° C., 90% humidity and 5% CO2. 24 hours prior to assay, media containing 5 mM sodium butyrate were added to MDCKII cells in flasks, and cells were grown to 80-90% confluence. On assay day, cells were trypsinized and resuspended in Krebs-Henseleit Buffer (KHB), pH 7.4 at […]. Cells were preincubated for 15 min in assay plate before addition of test compound or substrate.
Test compounds were serially diluted in DMSO and then spiked (2 μL) into in 0.4 mL KHB buffer containing wild-type or OCT2-transfected cells and incubated for 10 minutes. Assay was initiated with the addition of 0.1 mL of 100 μM ^14C-TEA in KHB buffer (20 μM final concentration after mixing). The concentration of TEA is based on the Km. After 10 minutes of incubation, the assay mixture was quenched with addition of 0.5 mL of ice-cold 1×PBS buffer. Samples were then centrifuged at 1000 rpm for 5 min and supernatants were removed. Wash steps were repeated four times with ice-cold PBS. Finally, the cell pellets were lysed with 0.2N NaOH and let sit at room temperature for at least 30 min to ensure complete lysis. Samples were then counted on liquid scintillation counter and dpm counts were used to perform the following calculations. The % inhibition was calculated as follows: % inhibition=[1−{[OCT2]i−[WT]ni}/{[OCT2]ni−[WT]ni}]*100 where, [OCT2]i represents the dpm count in the presence of test compound for either OCT2 cells, […] of test compound for OCT2 cells and [WT]ni represents the dpm count in the absence of test compound for wild type cells, respectively.

[1] = Cytotoxicity (CC50) in MT4 cells, mock-infected; format: cell-based; details: human, mock-infected (uninfected)
Experimental: as §1

human PXR = human PXR (Homo sapiens (Human), UniProt O75469); test: Human PXR activation assay (luciferase reporter, DPX2 cells); format: cell-based; details: 15 uM; DPX2 cells; % Emax relative to rifampicin, adjusted for DMSO background
Sequence of human PXR (O75469 whole entry): as the sequence (O75469 whole entry) above
Experimental: as §2, §3

[2] = Plasma protein binding (equilibrium dialysis); format: in vitro ADME; details: human, plasma (sodium EDTA) dialysed against buffer; 2 μM in plasma vs. buffer, 24 hours at 37° C.; read-out: % Free HP/Buffer
Experimental: Plasma protein binding was determined using a HTD96b equilibrium dialyzer with a plate base, stainless steel pressure plate and Teflon bock. 9 Teflon bars, labeled sequentially from A through I, were assembled with two stainless steel connecting rods. Membranes were placed between two Teflon bars, with the membrane placed approximately 2 mm below the top edge of the bar and the lower membrane edge overlapped the bottom of all wells. The membrane was soaked for about 20 minutes in water, about 20 minutes in ethanol (30/70 v/v) and rinsed with water three times to remove the ethanol. It was soaked in PBS for at least 30 minutes. Plasma in sodium EDTA (Bioreclamation or equivalent) was used. The Plasma (not pH-adjusted) was stored at −80° C. and thawed at room temperature before use. The stock solution of the compounds tested was at 200 μM in DMSO. The quench solution used was 50 nM of an internal standard in 100% ACN. To prepare a 2 μM solution of the compound tested in plasma, 5 μL of a 200 μM stock solution was added to 495 μL of blank plasma. 100 μL plasma was added with 2 μM of test compound into one side of the well. 100 μL of buffer (for plasma vs. buffer) was added into another side of the well. The 96-well plate was covered using an adhesive sealing film and incubated for 24 hours at 37° C. under slow rotation. This procedure was replicated for each compound. 50 μL of plasma sample was put into a 96 well plate, 50 μL of buffer was added. 50 μL of buffer was put into a 96 well plate. 50 μL of plasma was added. 300 μL of quench solution was added and the plate sealed and shaken for 15 minutes. The material was centrifuged for 30 minutes at 3000 RPM and ˜250 μL was transferred into a short plate. The samples were analyzed by LC/MS. The resulting data is shown in the last row of Table 3 as “% Free” which corresponds to the percentage of compound not protein bound.

HIV-1 N155H/Q148R = format: cell-based; details: MT2 cells; mean EC50 mutant / mean EC50 wt
Experimental: (§4) For the antiviral assay utilizing MT-2 cells, 50 μL of 2× test concentration of 3-fold serially diluted compound in culture medium with 10% FBS was added to each well of a 96-well plate (9 concentrations) in triplicate. MT-2 cells were infected with wild-type or mutant variants of HIV-1 for 3 hours using a volume of viral inoculum determined to produce 90% cell killing. Fifty microliters of infected cell suspension in culture medium with 10% FBS (˜1.5×10^4 cells) was then added to each well containing 50 μL of serially diluted compound. The plates with HIV-infected cultures were then incubated at 37° C. for 5 days in the presence of the tested compounds. After 5 days of incubation, 100 μL of CellTiter-Glo™ Reagent (catalog # G7571, Promega Biosciences, Inc., Madison, Wis.) was added to each well. Cell lysis was carried out by incubating at room temperature for 10 min followed by a chemiluminescence read-out.
(§5) The chemiluminescence readout from the 10-point antiviral dose response was analyzed directly by curve fitting with equation (I) to determine the EC50.
(§6) where y=Cell Survival, M=maximum cell survival enabled by drug protection, H=baseline cell survival without drug protection, n=Hill coefficient of the antiviral dose response, m=Hill coefficient of the cytotoxicity dose response, and [I]=inhibitor concentration.
(§7) EC50 values (mean±standard deviation) were calculated from at least three independent experiments performed in triplicate. The fold-change in antiviral activity of tested compounds was calculated as a ratio of the mean EC50 for each mutant virus divided by the mean EC50 of the control WT virus.

HIV-1 G140S/Q148R = format: cell-based; details: MT2 cells; mean EC50 mutant / mean EC50 wt
Experimental: as §4, §5, §6, §7

HIV-1 E138K/Q148K = format: cell-based; details: MT2 cells; mean EC50 mutant / mean EC50 wt
Experimental: as §4, §5, §6, §7

HIV-1 E92Q/N155H = format: cell-based; details: MT2 cells; mean EC50 mutant / mean EC50 wt
Experimental: as §4, §5, §6, §7

[3] = Pharmacokinetics after intravenous infusion to male SD rats; format: in vivo; details: Sprague-Dawley, plasma, rat, IV infusion 0.5 mg/kg
Experimental: (§8) Pharmacokinetic analysis was performed on compounds 25b and 39 following intravenous or oral administration to rats.
(§9) The test compounds were formulated in 5% Ethanol, 55% PEG 300, and 40% water at 0.1 mg/mL for IV infusion and for oral dosing.
(§10) Each dosing group consisted of 3 male, Sprague-Dawley rats. At dosing, the animals weighed an average of 0.25 kg. The animals were fasted overnight prior to dose administration and up to 4 hr after dosing.
(§11) For the IV infusion group, the test article was administered by intravenous infusion over 30 min. The rate of infusion was adjusted according to the body weight of each animal to deliver a dose of 0.5 mg/kg. For the oral dosing group, the test article was administered by oral gavage at 5 mL/kg for a dose of 0.5 mg/kg.
For pharmacokinetic analysis of intravenously administered compounds, serial venous blood samples (approximately 0.3 mL each) were taken from each animal at 0, 0.250, 0.483, 0.583, 0.750, 1.50, 3.00, 6.00, 8.00, 12.0, 24.0, 48 and 72 hours after dosing. The blood samples were collected into Vacutainer™ tubes containing EDTA-K2 as the anti-coagulant and were immediately placed on wet ice pending centrifugation for plasma. An LC/MS/MS method was used to measure the concentration of the test compound in plasma. An aliquot of 50 μL of each plasma sample was added to a clean 96 well plate, and 200 μL of cold acetonitrile/internal standard solution (ACN)/(ISTD) was added. After protein precipitation, an aliquot of 110 μL of the supernatant was transferred to a clean 96-well plate and diluted with 300 μL of water. An aliquot of 10 μL of the above solution was injected into a ABSciex API-4000 triple quadrupole LC/MS/MS system utilizing a HyPurity C18 HPLC column (30×2.1 mm, 3μ), from Thermo-Hypersil (Part #22103-032130). An Agilent 1200 series binary pump (P/N G1312A Bin Pump) was used for elution and separation, and an HTS Pal autosampler (LEAP Technologies, Carrboro, N.C.) was used for sample injection. A API-4000 triple quadrupole mass spectrometer was utilized in multiple reaction monitoring mode (Applied Biosystems, Foster City, Calif.). Liquid chromatography was performed using two mobile phases: mobile phase A contained 0.1% formic acid and 1% isopropylamine in aqueous solution, and mobile phase B contained […]. Non-compartmental pharmacokinetic analysis was performed on the plasma concentration-time data. The resulting data are shown in the first three columns of Table 2. In Table 2, Cl refers to clearance, which characterizes the rate at which drug is removed from plasma. The lower the clearance of a drug is, the longer the elimination half-life is in the body. Vss refers to the steady state volume of distribution and indicates how well a drug is distributed into the tissues. The larger the Vss is, the longer the elimination half-life is in the body. MRT refers to mean residence time, which is a measure of the average time molecules exist in the body.

[4] = Pharmacokinetics after oral administration to male SD rats; format: in vivo; details: Sprague-Dawley, plasma, rat, oral gavage 0.5 mg/kg, solution, read-out: % F (solution)
Experimental: as §8, §9, §10, §11
For pharmacokinetic analysis of orally administered compounds, serial venous blood samples (approximately 0.3 mL each) were taken from each animal at time points of 0, 0.25, 0.50, 1.0, 2.0, 4.0, 6.0, 8.0, 12.0 24.0, 48.0 and 72 hours after dosing. Blood samples were collected, prepared and analyzed in a similar way to the intravenous studies described above. Non-compartmental pharmacokinetic analysis was performed on the plasma concentration-time data. In Table 2, F (%) refers to oral bioavailability.

wild-type HIV-1 = test: Antiviral assay in MT-2 cells, wild-type HIV-1; format: cell-based; details: Human immunodeficiency virus 1, 120 h; MT2 cells, wild-type HIV-1, 5 days; read-out: wt
Experimental: as §4, §5, §6, §7

[5] = Human immunodeficiency virus 1, IIIB, MT4, 120 h, MT4 cells, HIV-IIIb, 5 days

inhibition at 24 h, 15 µM (PXR (NR1I2)): 65%
EC50 (HIV-IIIb; MT4 cells, HIV-IIIb, 5 days): 0.00253 µM
Compound: CN1C(=O)c2c(O)c(=O)c(C(=O)NCc3c(F)cc(F)cc3F)cn2[C@@H]2CCCC[C@@H]21 [Compound 4]
CC50 (MT4 cells): 10.5 µM

IC50 (OCT2): 6.4 µM
inhibition at 24 h, 15 µM (PXR (NR1I2)): 18%
EC50 (HIV-IIIb; [5]): 0.00626 µM
Compound: CCN1C(=O)c2c(O)c(=O)c(C(=O)NCc3c(F)cc(F)cc3F)cn2[C@@H]2CCOC[C@H]21 [Compound 12]
CC50 at 5 days [1]: 36.5 µM

IC50 (OCT2): 10 µM
inhibition at 24 h, 15 µM (PXR (NR1I2)): 1%
EC50 (HIV-IIIb; [5]): 0.00262 µM
Compound: O=C(NCc1c(F)cc(F)cc1F)c1cn2c(c(O)c1=O)C(=O)N(CC(F)(F)F)[C@H]1COCC[C@H]12 [Compound 31]
CC50 at 5 days [1]: 52.5 µM

Compound: O=C(NCc1c(F)cc(F)cc1F)c1cn2c(c(O)c1=O)C(=O)N(CC(F)(F)F)[C@@H]1COCC[C@@H]12 [Compound 32]
IC50 (OCT2): 10 µM
CC50 (MT4 cells): 57.1 µM
PXR % inh at 15 uM (adjusted) (human PXR): 19%
EC50 (HIV-IIIb): 0.0038 µM

Compound: C[C@@H]1CCO[C@H]2Cn3cc(C(=O)NCc4ccc(F)cc4F)c(=O)c(O)c3C(=O)N12 [Dolutegravir, reference compound]
fraction unbound at 24 h, 2 µM [2]: 0.01
Resistance fold shift N155H/Q148R vs. wild type (HIV-1 N155H/Q148R): 2.5 fold shift
Resistance fold shift G140S/Q148R vs. wild type (HIV-1 G140S/Q148R): 3.7 fold shift
Resistance fold shift E138K/Q148K vs. wild type (HIV-1 E138K/Q148K): 8.2 fold shift
Resistance fold shift E92Q/N155H vs. wild type (HIV-1 E92Q/N155H): 1.9 fold shift
MRT [3]: 12.4 h
clearance [3]: 0.167 mL/min/kg
Vd ([3]; read-out: Vss): 0.17 L/kg
bioavailability [4]: 84%
EC50 (wild-type HIV-1): 0.0017 µM
